Legend:
Assay in all cases: relative viability (nuclei count vs DMSO), 5 days (fraction); higher = more cells survive
[1] = compound: CN(c1ncccc1CNc1nc(Nc2ccc3c(c2)CC(=O)N3)ncc1C(F)(F)F)S(C)(=O)=O + Nc1ncn([C@H]2C[C@H](O)[C@@H](CO)O2)c(=O)n1 [Decitabine] (partner 2 µM)
Outline: (§1)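 After 5 days of treatment, lung cancer cells in 1536-well plates were fixed and stained in a single step (final 0.05% Triton X-100, 1% formaldehyde, 1 ug/ml Hoechst) and their nuclei counted on 4× images. Treatment had been applied by pin tool the day after seeding as one drug alone or as a fixed anchor-drug dose with five library-drug doses (not always all listed) in √10 steps. Relative viability is the nuclei count of treated wells divided by that of vehicle wells, and values are medians of duplicate plates.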

[2] = compound: CN(c1ncccc1CNc1nc(Nc2ccc3c(c2)CC(=O)N3)ncc1C(F)(F)F)S(C)(=O)=O + CCNC(=O)c1noc(-c2cc(C(C)C)c(O)cc2O)c1-c1ccc(CN2CCOCC2)cc1 [Luminespib] (partner 0.01 µM)
Outline: as §1

[3] = compound: CN(c1ncccc1CNc1nc(Nc2ccc3c(c2)CC(=O)N3)ncc1C(F)(F)F)S(C)(=O)=O + O=C(c1cc(Cc2n[nH]c(=O)c3ccccc23)ccc1F)N1CCN(C(=O)C2CC2)CC1 [Olaparib] (partner 8 µM)
Outline: as §1

[4] = compound: CN(c1ncccc1CNc1nc(Nc2ccc3c(c2)CC(=O)N3)ncc1C(F)(F)F)S(C)(=O)=O + CS(=O)(=O)CCNCc1ccc(-c2ccc3ncnc(Nc4ccc(OCc5cccc(F)c5)c(Cl)c4)c3c2)o1 [Lapatinib] (partner 2 µM)
Outline: as §1

Row | Cell Line | relative viability ([1]; first compound 0.01 µM) | relative viability ([1]; first compound 0.03162 µM) | relative viability ([1]; first compound 0.1 µM) | relative viability ([1]; first compound 0.3162 µM) | relative viability ([1]; first compound 1 µM) | relative viability ([2]; first compound 0.01 µM) | relative viability ([2]; first compound 0.03162 µM) | relative viability ([2]; first compound 0.1 µM) | relative viability ([2]; first compound 0.3162 µM) | relative viability ([2]; first compound 1 µM) | relative viability ([3]; first compound 0.01 µM) | relative viability ([3]; first compound 0.03162 µM) | relative viability ([3]; first compound 0.1 µM) | relative viability ([3]; first compound 0.3162 µM) | relative viability ([3]; first compound 1 µM) | relative viability ([4]; first compound 0.01 µM) | relative viability ([4]; first compound 0.03162 µM) | relative viability ([4]; first compound 0.1 µM) | relative viability ([4]; first compound 0.3162 µM) | relative viability ([4]; first compound 1 µM)
1 | NCI-H441 | 0.3 | 0.25 | 0.264 | 0.261 | 0.224 | 0.435 | 0.322 | 0.369 | 0.331 | 0.287 | 0.633 | 0.592 | 0.466 | 0.486 | 0.408 | – | – | – | – | –
2 | NCI-H1793 | 0.494 | 0.563 | 0.458 | 0.45 | 0.432 | 0.218 | 0.181 | 0.212 | 0.175 | 0.138 | 0.88 | 0.685 | 0.777 | 0.948 | 0.769 | 0.542 | 0.654 | 0.79 | 0.575 | 0.691
3 | NCI-H23 | 0.308 | 0.345 | 0.319 | 0.332 | 0.292 | 0.182 | 0.204 | 0.207 | 0.228 | 0.207 | 0.337 | 0.345 | 0.389 | 0.319 | 0.306 | 1.26 | 1.25 | 1.11 | 1.21 | 0.987
4 | HARA | 0.66 | 0.599 | 0.492 | 0.597 | 0.573 | 0.589 | 0.887 | 0.602 | 0.606 | 0.549 | 0.895 | 0.75 | 0.685 | 1.1 | 0.9 | 0.763 | 0.692 | 0.616 | 0.678 | 0.665
5 | NCI-H1792 | 0.469 | 0.586 | 0.523 | 0.606 | 0.586 | 0.387 | 0.54 | 0.467 | 0.451 | 0.359 | 0.414 | 0.386 | 0.691 | 0.495 | 0.386 | 0.93 | 0.937 | 0.905 | 0.827 | 0.835
6 | NCI-H1703 | – | – | – | – | – | – | – | – | – | – | 0.393 | 0.388 | 0.368 | 0.526 | 0.389 | 1.05 | 1.13 | 1.27 | 1.41 | 1.01
7 | NCI-H1648 | 0.6 | 0.476 | 0.426 | 0.485 | 0.367 | – | – | – | – | – | 0.874 | 0.886 | 0.918 | 0.48 | 0.46 | – | – | – | – | –
8 | CAL-12T | – | – | – | – | – | 0.284 | 0.55 | 0.451 | 0.258 | 0.277 | 0.766 | 0.697 | 0.619 | 0.775 | 0.636 | 0.65 | 0.663 | 0.43 | 0.591 | 0.627
9 | NCI-H727 | 0.943 | 0.827 | 0.793 | 0.896 | 0.936 | 0.407 | 0.232 | 0.289 | 0.25 | 0.367 | 0.776 | 0.707 | 0.77 | 0.635 | 0.715 | 0.813 | 1.09 | 0.549 | 0.85 | 0.676
10 | NCI-H2085 | 0.545 | 0.577 | 0.547 | 0.548 | 0.522 | 0.394 | 0.681 | 0.457 | 0.418 | 0.36 | 0.79 | 0.81 | 0.71 | 0.759 | 0.696 | 0.777 | 0.81 | 0.797 | 0.696 | 0.662
11 | NCI-H1395 | 0.711 | 0.767 | 0.678 | 0.771 | 0.785 | 0.766 | 0.703 | 0.682 | 0.558 | 0.658 | 0.454 | 0.484 | 0.492 | 0.457 | 0.471 | 0.934 | 0.974 | 0.998 | 1.23 | 1.19
12 | SW 900 | 0.437 | 0.466 | 0.425 | 0.449 | 0.454 | 0.216 | 0.2 | 0.19 | 0.154 | 0.168 | 0.867 | 1.09 | 1.01 | 0.722 | 0.718 | – | – | – | – | –
13 | NCI-H460 | 0.477 | 0.702 | 0.537 | 0.493 | 0.549 | 0.0312 | 0.0306 | 0.0284 | 0.0265 | 0.0325 | 0.443 | 0.573 | 0.464 | 0.464 | 0.396 | 1.11 | 1.65 | 0.963 | 0.964 | 1.02
14 | A549 | 0.271 | 0.258 | 0.285 | 0.257 | 0.257 | – | – | – | – | – | 0.29 | 0.367 | 0.352 | 0.464 | 0.373 | 1 | 1.06 | 0.971 | 0.928 | 0.915
15 | IA-LM | – | – | – | – | – | – | – | – | – | – | 0.758 | 0.959 | 0.802 | – | 0.66 | 0.884 | 0.82 | 0.887 | 0.608 | 0.56
16 | EKVX | 0.372 | 0.327 | 0.301 | 0.342 | 0.335 | 0.923 | 1.03 | 0.839 | 0.869 | 0.786 | 0.833 | 0.796 | 0.798 | 0.772 | 0.676 | 0.182 | 0.188 | 0.218 | 0.119 | 0.514
17 | ChaGo-K-1 | 0.565 | 0.549 | 0.438 | 0.527 | 0.492 | 0.479 | 0.629 | 0.635 | 0.706 | 0.556 | 0.453 | 0.397 | 0.4 | 0.401 | 0.355 | – | – | – | – | –
18 | NCI-H1755 | 0.682 | 0.728 | 0.721 | 0.646 | 0.707 | 0.531 | 0.41 | 0.479 | 0.389 | 0.419 | 0.909 | 0.904 | 0.83 | 0.791 | 0.839 | 1.09 | 1.08 | 1.01 | 0.961 | 0.957
19 | NCI-H2228 | – | – | – | – | – | 0.144 | 0.23 | 0.0915 | 0.182 | 0.103 | 0.619 | 1.01 | 0.665 | 0.766 | 0.539 | 0.835 | 0.914 | 1.02 | 1.07 | 1.08

— the supplement of paper PMC10307832
